Drawing on patent publication US9834521B2, “Choline kinase inhibitors” (ARIAD Pharmaceuticals, Inc., priority 2013, dated 2017), this text covers IC50 for 15 compounds.

T1 sequence (P35790 75-457): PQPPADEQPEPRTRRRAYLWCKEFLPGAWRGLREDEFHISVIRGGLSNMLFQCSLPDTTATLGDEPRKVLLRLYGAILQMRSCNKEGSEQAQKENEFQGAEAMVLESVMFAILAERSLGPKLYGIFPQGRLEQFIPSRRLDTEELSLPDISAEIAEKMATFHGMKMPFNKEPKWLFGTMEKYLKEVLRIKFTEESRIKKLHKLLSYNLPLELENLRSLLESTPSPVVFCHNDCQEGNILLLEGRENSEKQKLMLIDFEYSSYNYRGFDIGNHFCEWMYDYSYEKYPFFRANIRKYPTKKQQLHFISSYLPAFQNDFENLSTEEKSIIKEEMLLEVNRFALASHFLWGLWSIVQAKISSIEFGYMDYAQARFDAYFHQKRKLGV

One assay addresses T1, truncated form of human Choline kinase α1 that includes residues 75-457 (Homo sapiens, UniProt P35790).
T1 construct: made in house
The experiment in a line: Kinase Assay, coupled (ATP regeneration) LDH/PK assay, NADH absorbance.
Conditions: not given
It counts as biochemical. How it is done:
Absorbance of NADH (340 nm) was measured over 30 min using a SpectraMax M5 (Molecular Devices). Initial reaction velocity (ΔA340/Δt) was calculated and plotted as a function of inhibitor concentration in a 2-fold dilution series. IC50 values were obtained by fitting the relative velocities to a dose-response model.
Broadly, the IC50 is the concentration that inhibits the measured activity by half. As for `CN1CCCN(Cc2ccc(-c3ccc(C(=O)N4CCOCC4)cc3)c(C#N)c2)CC1` [Example 36, 4-((4-methyl-1,4-diazepan-1-yl)methyl)-4′-(morpholine-4-carbonyl)-[1,1′-biphenyl]-2-carbonitrile], the IC50 is < 2000 nM.
Turning to `CN1CCCN(Cc2ccc(-c3ccc(CNP(C)(C)=O)cc3)c(C#N)c2)CC1` [Example 46, N-((2′-cyano-4′-((4-methyl-1,4-diazepan-1-yl)methyl)-[1,1′-biphenyl]-4-yl)methyl)-P,P-dimethylphosphinic amide], the IC50 is < 500 nM.

Still in this assay, the particulars now being: Examples designated with an asterisk (*): version 1 of the Kinase Assay, 200 nM enzyme; read-out: IC50.
In the case of `CN1CCCN(Cc2ccc(N3CCCC3=O)cc2)CC1` [Example 144, 1-(4-((4-methyl-1,4-diazepan-1-yl)methyl)phenyl)pyrrolidin-2-one], the IC50 is < 50000 nM.
For the compound `CN1CCCN(Cc2ccc(CCCCc3ccc(CN4CCCN(C)CC4)cc3)cc2)CC1` [Example 154, 1,4-bis(4-((4-methyl-1,4-diazepan-1-yl)methyl)phenyl)butane], the IC50 is < 50000 nM.

The same assay, now with this note: Examples not designated with an asterisk; footnote prints version 1 of the Kinase Assay; read-out: IC50.
Take `CN1CCCN(Cc2ccc(-c3ccc4ccccc4c3)c(C#N)c2)CC1` [Example 126, 5-((4-methyl-1,4-diazepan-1-yl)methyl)-2-(naphthalen-2-yl)benzonitrile]: the IC50 was < 50000 nM.
Regarding `CN1CCCN(Cc2ccc(-c3ccc(C(N)=O)cc3)c(C#N)c2)CC1` [Example 28, 2′-cyano-4′-((4-methyl-1,4-diazepan-1-yl)methyl)-[1,1′-biphenyl]-4-carboxamide], the IC50 was < 500 nM.
`CN1CCCN(Cc2ccc(-c3ccc(C(=O)N4CCCN(C)CC4)cc3Br)c(C#N)c2)CC1` [Example 61, 2′-bromo-4-((4-methyl-1,4-diazepan-1-yl)methyl)-4′-(4-methyl-1,4-diazepane-1-carbonyl)[1,1′-biphenyl]-2-carbonitrile]: the IC50 was < 500 nM.
Consider `Cc1cc(C#N)ccc1-c1ccc(CN2CCCN(C)CC2)cc1C#N` [Example 121, 2′-methyl-4-((4-methyl-1,4-diazepan-1-yl)methyl)-[1,1′-biphenyl]-2,4′-dicarbonitrile], for which the IC50 was < 2000 nM.
Consider `CN1CCCN(Cc2ccc(-c3ccc(C(=O)N4CCCN(C)CC4)cc3)c(F)c2)CC1` [Example 58, (2′-fluoro-4′-((4-methyl-1,4-diazepan-1-yl)methyl)-[1,1′-biphenyl]-4-yl)(4-methyl-1,4-diazepan-1-yl)methanone], for which the IC50 was < 500 nM.
In the case of `CN1CCCN(Cc2ccc(-c3ccc(C(=O)N4CCCN(C)CC4)cc3-c3ccccc3)c(C#N)c2)CC1` [Example 65, 4-((4-methyl-1,4-diazepan-1-yl)methyl)-4′-(4-methyl-1,4-diazepane-1-carbonyl)-[1,1′:2′,1″-terphenyl]-2-carbonitrile], the IC50 is < 500 nM.
For `CN1CCCN(Cc2ccc(-c3cc[nH]c3)c(C#N)c2)CC1` [Example 117, 5-((4-methyl-1,4-diazepan-1-yl)methyl)-2-(1H-pyrrol-3-yl)benzonitrile], the IC50 was < 2000 nM.
Regarding `CC(=O)Nc1ccc(-c2ccc(CN3CCCN(C)CC3)cc2C#N)cn1` [Example 102, N-(5-(2-cyano-4-((4-methyl-1,4-diazepan-1-yl)methyl)phenyl)pyridin-2-yl)acetamide], the 50% inhibitory concentration (IC50) was < 500 nM.
For `CN1CCCN(Cc2ccc(-c3ccc(C(=O)N4CCCN(C)CC4)cc3-c3ccc(C#N)cc3)c(C#N)c2)CC1` [Example 68, 4-((4-methyl-1,4-diazepan-1-yl)methyl)-4′-(4-methyl-1,4-diazepane-1-carbonyl)-[1:1′:2′,1″-terphenyl]-2,4″-dicarbonitrile], the IC50 was < 500 nM.
For the compound `CN1CCCN(Cc2ccc(-c3ccc([N+](=O)[O-])cc3)c(C#N)c2)CC1` [Example 106, 4-((4-methyl-1,4-diazepan-1-yl)methyl)-4′-nitro-[1,1′-biphenyl]-2-carbonitrile], the IC50 is < 500 nM.
In the case of `CN1CCCN(Cc2ccc(-c3ccc(N)c([N+](=O)[O-])c3)c(C#N)c2)CC1` [Example 101, 4′-amino-4-((4-methyl-1,4-diazepan-1-yl)methyl)-3′-nitro-[1,1′-biphenyl]-2-carbonitrile], the IC50 was < 500 nM.
